From patent publication US4916146A, “Amino acid imide derivatives, usage thereof, and medicinal composition containing the same” (Zeria Pharmaceutical Co., Ltd., priority 1987, dated 1990)
Where two headings read alike, the source gives them in different places.

Assays:
ICR male mice [1] = assay: Anti-amnesic activity (cycloheximide-induced amnesia, step-down passive avoidance); type: in vivo; conditions: for Amnesic Mice (%): latency shorter than 150 seconds at 24 hours
Procedure: Compounds of this invention were checked with respect to their abilities to prevent the inhibition of long-term memory fixation by cycloheximide which is an amnesia inducing compound. ICR male mice, age 6 to 7 weeks, were used for the test. The test was carried out using a step-down passive avoidance apparatus.
On the first day, a 5-minute training was given to each mouse which was placed on a rubber platform. Every time when the mouse stepped down on the grid floor, a 0.2 mA electric foot shock was applied until it stepped up on the platform. This motion of the mouse was repeated for 5 minutes.
Administration of cycloheximide and the compound of this invention was performed immediately after the training. Cycloheximide was dissolved in a saline and subcutaneously administered to the mouse. The compound of this invention, suspended in a sesame oil/Tween 80/5% gum arabic (3/1/96; by volume), was intraperitoneally administered. Aniracetam suspended in 5% gum arabic was orally administered. Twenty-four hours after the training, a retention test was performed, which consisted of placing the mouse on the platform again and measuring the latency of the mouse to step down on the grid floor. The amnesia ratio for each group of mice was determined as the percentage of amnesic mice taken latency shorter than 150 seconds.
- wherein %A is a percentage of amnesic mice, t denotes a test compound,
stands for cycloheximide, v stands for vehicle, and s stands for saline

[2] = target: prolyl endopeptidase from Flavobacterium (Elizabethkingia meningoseptica, UniProt P27028); assay: biochemical
Procedure: Inhibitory activity of the compound of formula (I) against prolyl endopeptidase from Flavobacterium was measured according to the method of Yoshimoto and Tsuru [Arg.
Prolyl endopeptidase was dissolved with 20 mM Tris-HCl buffer (pH 7.4) at a concentration of 0.4 unit/ml. This solution (100 μl) was added to 890 μl of the same buffer, and the solution thus obtained was left at room temperature for 10 minutes. (This solution is herein referred to as an "Enzyme solution"). This buffer (990 μl) was used as a "Correction solution".
Test compound dissolved with dimethylsulfoxide (10 μl) was added to the Enzyme solution. The solution was stirred and allowed to stand at room temperature for 10 minutes. Separately, 10 μl of dimethylsulfoxide was added to Enzyme solution and was processed in the same manner. The solution thus obtained was served as a "Control solution". The same procedure was carried out on the Correction solution.
Enzyme activities were determined by subtracting the blank value, i.e., the absorbance measured on the Correction solution, from the absorbance of each of the sample solutions or of the Control solution.

ICR male mice [3] = assay: Anti-hypoxic activity (survival time under 4% O2 + 96% N2); type: in vivo; conditions: 30 minutes before mixed gas, control = 100
Procedure: Groups of ICR male mice, age 4 to 5 weeks, each group consisting of 10 mice and each mouse having been fasted for 24 hours, were used for the test. Mice were placed in a transparent desiccator (diameter: 19 cm, height: 30 cm) made of synthetic resin and having 2 bulbs, one at the upper portion and the other at the lower portion, for replacing the gas therein. A mixed gas (4% O2 +96% N2) was fed from the upper bulb at a rate of 10 l/min to measure the period of time until respiratory arrest took place for each mouse. The time measured was taken as the time of survival.
Each tested compound suspended in 5% gum arabic solution was intraperitoneally administered 30 minutes before the start of the mixed gas feeding. A group of mice to which only 5% gum arabic solution was intraperitoneally administered was used as a control.
Compounds, not sufficiently suspended in 5% gum arabic, were dissolved with Tween 80 so that the final concentration of the detergent was 3%, followed by the addition of 5% gum arabic. The anti-hypoxic activity was determined according to the following formula: [formula]

ICR male mice [4] = assay: Toxicity experiment, intraperitoneal administration; type: in vivo; conditions: 300 mg/kg intraperitoneally in 5% gum arabic, period of 7 days
Procedure: Groups of ICR male mice, age 4 to 5 weeks, each group consisting of 10 mice were used for the test. A dose of 300 mg/kg of each compound prepared in Examples 1 and 2 hereinbelow suspended in 5% gum arabic was intraperitoneally administered to each group of mice.

Fisher 344 male rats = assay: Toxicity experiment, oral administration; type: in vivo; conditions: period of 14 days; for Mortality: 500, 1,000, 1,500 and 2,000 mg/kg orally in propylene glycol
Excerpt: Groups of Fisher 344 male rats, age 6 weeks, each group consisting of 5 rats were used for the test.

[5] = target: T1, prolyl endopeptidase prepared from canine brains (Canis lupus familiaris, UniProt A0A8I3N6C8); assay: Inhibitory activity against prolyl endopeptidase from brain; type: biochemical; conditions: substrate carbobenzoxyglycylprolyl paranitroanilide, 37° C., 10 minutes, read-out: Inhibition Potency, IC50
T1 construct: Prolyl endopeptidase was prepared from canine brains; from tissue; host or cells: canine brain
Procedure: Buffer A: 20 mM Tris-HCl buffer (pH 7.0)
Buffer B: a solution containing 0.1% gelatin, 1 mM EDTA, and 1 mM mercapto ethanol in buffer solution A
Prolyl endopeptidase was dissolved with the Buffer B at a concentration of 0.4 unit/ml. This solution (50 μl) was added to 940 μl of the Buffer A, and the solution thus obtained was left at 37° C. for 10 minutes (This solution is herein referred to as "Enzyme solution"). A mixed solution of 50 μl of the Buffer B and 940 μl of Buffer A was used as a "Correction solution".
A test compound was dissolved with dimathylsulfoxide (10 μl) was added to the Enzyme solution. The mixture was stirred and allowed to stand at 37° C. for 10 minutes. Separately, 10 μl of dimethylsulfoxide was added to the Enzyme solution and was processed in the same manner. The solution thus obtained was served as a "Control solution". The same procedure was carried out on the Correction solution.
One hundred micoliters of 2.5 mM carbobezoxyglycylprolyl paranitroanilide, which was dissolved with 40% dioxane, was added to each of the above 3 solutions, i.e., the Enzyme solution with the test compound, Control solution, and Correction solution, and the reaction was carried out at 37° C. for 10 minutes.
Enzyme activities were determined by subtracting the blank value, i.e., the absorbance measured on the Correction solution, from the absorbance of each of the sample solutions and of the Control solution.

[6] = 30 mg/kg po + cycloheximide 200 mg/kg sc
[7] = 60 mg/kg po + cycloheximide 200 mg/kg sc
[8] = 1 mg/kg ip + cycloheximide 200 mg/kg sc
[9] = 3 mg/kg ip + cycloheximide 200 mg/kg sc
[10] = read-out: Inhibition Potency, IC50

Chain of prolyl endopeptidase from Flavobacterium (P27028 21-705): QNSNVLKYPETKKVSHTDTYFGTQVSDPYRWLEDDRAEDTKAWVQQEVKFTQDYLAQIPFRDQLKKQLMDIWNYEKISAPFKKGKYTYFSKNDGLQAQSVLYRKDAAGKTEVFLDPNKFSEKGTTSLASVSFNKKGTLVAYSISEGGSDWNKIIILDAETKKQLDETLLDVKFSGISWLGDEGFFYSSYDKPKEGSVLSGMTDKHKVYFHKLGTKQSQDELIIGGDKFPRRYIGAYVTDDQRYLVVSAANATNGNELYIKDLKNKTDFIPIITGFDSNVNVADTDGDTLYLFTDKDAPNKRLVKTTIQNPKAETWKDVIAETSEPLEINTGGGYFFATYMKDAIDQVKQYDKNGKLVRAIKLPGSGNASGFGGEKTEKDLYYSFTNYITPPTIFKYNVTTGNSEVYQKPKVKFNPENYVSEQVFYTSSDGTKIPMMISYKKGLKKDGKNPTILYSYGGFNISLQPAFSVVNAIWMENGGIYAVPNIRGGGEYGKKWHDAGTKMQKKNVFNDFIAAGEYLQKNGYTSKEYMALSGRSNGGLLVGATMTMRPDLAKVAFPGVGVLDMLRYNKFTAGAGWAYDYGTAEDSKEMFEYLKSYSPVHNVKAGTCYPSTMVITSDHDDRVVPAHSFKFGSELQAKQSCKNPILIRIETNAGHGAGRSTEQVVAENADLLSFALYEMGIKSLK
T1 sequence (A0A8I3N6C8 1-710): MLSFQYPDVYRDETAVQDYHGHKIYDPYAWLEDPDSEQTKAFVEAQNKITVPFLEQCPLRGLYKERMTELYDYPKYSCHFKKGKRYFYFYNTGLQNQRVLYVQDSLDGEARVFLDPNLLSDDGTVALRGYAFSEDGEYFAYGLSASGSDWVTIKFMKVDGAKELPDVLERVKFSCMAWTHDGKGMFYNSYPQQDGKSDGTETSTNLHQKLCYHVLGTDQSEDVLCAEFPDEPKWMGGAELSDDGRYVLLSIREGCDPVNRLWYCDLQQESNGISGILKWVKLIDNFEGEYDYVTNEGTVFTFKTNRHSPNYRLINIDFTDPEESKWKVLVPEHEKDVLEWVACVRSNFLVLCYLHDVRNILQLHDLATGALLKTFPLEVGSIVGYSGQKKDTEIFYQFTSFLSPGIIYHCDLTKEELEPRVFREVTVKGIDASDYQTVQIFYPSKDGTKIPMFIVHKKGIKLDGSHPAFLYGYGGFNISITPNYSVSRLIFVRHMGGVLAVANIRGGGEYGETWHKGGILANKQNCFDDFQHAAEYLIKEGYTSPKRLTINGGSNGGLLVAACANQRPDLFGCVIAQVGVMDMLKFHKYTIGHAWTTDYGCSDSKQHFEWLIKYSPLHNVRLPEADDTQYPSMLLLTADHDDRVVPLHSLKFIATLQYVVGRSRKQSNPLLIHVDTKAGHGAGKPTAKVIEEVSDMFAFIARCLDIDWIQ

Structure (SMILES): COc1ccc(C(=O)N2CCCC2=O)cc1 [Aniracetam, reference compound]
- Amnesia Reversal (%) (ICR male mice [1]; [6]): 22.8%
- Amnesic Mice (%) (ICR male mice [1]; [6]): 42.9%
- Amnesia Reversal (%) (ICR male mice [1]; [7]): 7.2%
- Amnesic Mice (%) (ICR male mice [1]; [7]): 50.0%
- IC50 [2]: > 1000 µM
- Anti-hypoxic Activity (%) (ICR male mice [3]; dose 100 mg/kg ip): 115%
- Anti-hypoxic Activity (%) (ICR male mice [3]; dose 300 mg/kg ip): 159%

Structure (SMILES): CC(C)(CO)[C@@H](O)C(=O)NCCCC(=O)O [Calcium hopantenate, reference compound]
- IC50 ([2]; prolyl endopeptidase from Flavobacterium, substrate carbobenzoxyglycylprolyl paranitroanilide, 37° C., 10 minutes, read-out: Inhibition Potency, IC50): > 1000 µM
- Anti-hypoxic Activity (%) (ICR male mice [3]; dose 250 mg/kg ip): 135%

Structure (SMILES): O=C([C@@H]1CSCN1C(=O)CCCc1ccccc1)N1CCSC1 [Compound of Ex. 1, N-(4-phenylbutanoyl)-L-thioprolylthiazolidineimide]
- Mortality (ICR male mice [4]): No fatal problem
- Amnesia Reversal (%) (ICR male mice [1]; [8]): 28.2%
- Amnesic Mice (%) (ICR male mice [1]; [8]): 52.9%
- Amnesia Reversal (%) (ICR male mice [1]; [9]): 74.8%
- Amnesic Mice (%) (ICR male mice [1]; [9]): 26.7%
- IC50 [2, 10]: 0.087 µM
- Anti-hypoxic Activity (%) (ICR male mice [3]; dose 100 mg/kg ip): 124%
- Mortality (Fisher 344 male rats): No fatal problem
- IC50 [5]: 0.017 µM

Structure (SMILES): O=C([C@@H]1CCCN1C(=O)CCCc1ccccc1)N1CCSC1 [Compound of Ex. 2, N-(4-phenylbutanoyl)-L-prolylthiazolidineimide]
- Mortality (ICR male mice [4]): No fatal problem
- IC50 [2, 10]: 0.15 µM
- Anti-hypoxic Activity (%) (ICR male mice [3]; dose 100 mg/kg ip): 160%
- Mortality (Fisher 344 male rats): No fatal problem
- IC50 [5]: 0.041 µM

Structure (SMILES): O=C([C@@H]1CSCN1C(=O)CCCc1ccccc1)N1CCCC1 [Compound of Ex. 3, N-(4-phenylbutanoyl)-L-thioprolylpyrrolidineimide]
- Anti-hypoxic Activity (%) (ICR male mice [3]; dose 100 mg/kg ip): 169%
- Mortality (Fisher 344 male rats): No fatal problem
- IC50 [5]: 0.031 µM

Structure (SMILES): O=C([C@H]1CCCN1C(=O)CCCc1ccccc1)N1CCSC1 [Compound of Ex. 4, N-(4-phenylbutanoyl)-D-prolylthiazolidineimide]
- Anti-hypoxic Activity (%) (ICR male mice [3]; dose 100 mg/kg ip): 164%

Structure (SMILES): COC1=C(OC)C(=O)C(CCCCCCCCCCO)=C(C)C1=O [Idebenone, reference compound]
- Anti-hypoxic Activity (%) (ICR male mice [3]; dose 100 mg/kg ip): 140%

Structure (SMILES): O=C([C@@H]1CCCN1C(=O)CCCc1ccccc1)N1CCCC1 [SUAM 1221, reference compound]
- Rats died out of the 5 rats (Fisher 344 male rats; 1,500 mg/kg orally): one
- Rats died out of the 5 rats (Fisher 344 male rats; 2,000 mg/kg orally): 2
